# Experimental data taken from patent US7122193B1 (priority 1994, dated 2006).
# Where two headings read alike, the source gives them in different places. Ends that are not written are not given here. Peptide text beside a SMILES is read from it.
# Experiments:
# [1] = system: IgG antibodies of sera of patients suffering from DLE and SS; type: binding, human
# Protocol: FIG. 6: ELISA reactivity of serum samples originating from patients suffering from DLE and SS with the parent peptide and the analogue RIb 277–291 of Ro52. The sera of the patients are diluted to 1:1,000. Only the antibody activity of the sub-class IgG is measured. The median values of the optical density are indicated. The broken line represents the upper limit of the normal population corresponding to the mean value of the optical density of 20 normal human sera+2 SD (standard deviation) (0.30 OD units).
# Sera of female F1 lupous mice (NZB/W) were obtained from S. Batsford (Freibourg, Germany). The human sera originate from patients suffering from disseminated lupus erythematosus (DLE) and Sjögren's syndrome (SS). They were obtained from D. A. Isenberg (London), O. Meyer (Paris) and G. Fournié (Toulouse). The sera of healthy volunteers were obtained from J. L. Pasquali (Strasbourg).
# The sera of lupous mice were tested by ELISA as described previously (Benkirane, N., Friede, M., Guichard, G., briand, J. P., Van Regenmortel, M. H. V. and Muller, S. (1993) Antigenicity and immunogenicity of modified synthetic peptides containing D-amino acid residues. J. Biol. Chem., 268: 26279–26285). Only the antibodies of isotype IgG were tested. […] Clin. Exp. Immunol., 95: 397–407) except in the case of the peptide Ro52 277–291, where sensitization of the ELISA plates was carried out at 4° C. instead of 37° C. (see the reasons above). The threshold value for positivity of each test, including that of tests based on the use of retro-inverso peptide analogues, was determined using 20 sera of healthy individuals. The antigenic activity of the peptides is also measured by ELISA using a liquid phase inhibition test.
# The 30 sera (positive or negative with respect to the L peptide) were tested in parallel with the RIa and RIb analogues. It was shown that all the sera positive with the L peptide were also positive with the retro-inverso peptides. […] The mean optical density corresponding to the arithmetic mean of all the optical density values, including the values below the threshold line of positivity, is 0.21 (standard deviation 0.25) and 0.51 (standard deviation 0.62) with the L and RIb peptides respectively.
# [2] = system: antibodies of sera of patients bonding to the RIb peptide; type: binding, human
# HLA-A2 = type: binding, human
# [3] = target: MAb 11 × 2 (IgG3) anti-D peptide
# [4] = target: MAb 11 × 7 (IgG3) anti-D peptide
# trypsin = conditions: pH 7.4
# in vitro = conditions: pH 7.4
# [5] = system: sera of patients suffering from various systemic rheumatic diseases; type: binding, human
# I-A^d class II molecules = I-A^d class II molecules (Mus musculus, UniProt P01921+P04228); type: cell-based
# Chain of I-A^d class II molecules (P04228 24-256 limits assumed): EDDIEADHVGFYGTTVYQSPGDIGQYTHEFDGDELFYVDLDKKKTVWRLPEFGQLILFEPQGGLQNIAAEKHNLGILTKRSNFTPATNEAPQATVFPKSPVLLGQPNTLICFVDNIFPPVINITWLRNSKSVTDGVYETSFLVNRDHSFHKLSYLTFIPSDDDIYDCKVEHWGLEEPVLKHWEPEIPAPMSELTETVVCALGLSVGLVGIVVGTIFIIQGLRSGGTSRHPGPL
# Chain of I-A^d class II molecules (P01921 28-265 limits assumed): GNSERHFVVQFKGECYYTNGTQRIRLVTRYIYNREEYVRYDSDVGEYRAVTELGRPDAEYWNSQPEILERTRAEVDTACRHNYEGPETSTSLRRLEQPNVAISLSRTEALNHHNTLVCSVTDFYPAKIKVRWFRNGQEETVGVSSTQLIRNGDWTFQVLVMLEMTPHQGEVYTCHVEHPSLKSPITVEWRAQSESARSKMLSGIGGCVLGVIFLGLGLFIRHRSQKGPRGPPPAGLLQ
# I-E^d class II molecules = I-E^d class II molecules (Mus musculus, UniProt P01904+P01915); type: cell-based
# Chain of I-E^d class II molecules (P01904 26-255 limits assumed): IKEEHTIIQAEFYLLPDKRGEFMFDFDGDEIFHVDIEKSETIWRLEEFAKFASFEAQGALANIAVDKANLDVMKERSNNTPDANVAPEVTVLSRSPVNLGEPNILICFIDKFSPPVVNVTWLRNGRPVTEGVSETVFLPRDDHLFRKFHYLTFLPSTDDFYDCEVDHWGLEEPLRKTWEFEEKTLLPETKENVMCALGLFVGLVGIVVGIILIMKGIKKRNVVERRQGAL
# Chain of I-E^d class II molecules (P01915 27-264 limits assumed): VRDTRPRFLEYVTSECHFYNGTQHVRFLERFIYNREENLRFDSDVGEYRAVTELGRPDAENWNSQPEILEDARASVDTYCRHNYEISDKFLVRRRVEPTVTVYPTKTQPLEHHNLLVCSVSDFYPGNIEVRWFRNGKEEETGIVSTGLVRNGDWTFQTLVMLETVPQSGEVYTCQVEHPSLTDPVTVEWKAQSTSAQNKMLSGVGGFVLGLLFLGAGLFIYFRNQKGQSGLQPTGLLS
# [6] = system: peptide-primed T lymphocytes from BALB/c mice; type: cell-based, mouse
# [7] = system: peptide-primed T lymphocytes from BALB/c mice; type: cell-based, mouse; remark: listed apart in the source
# [8] = system: I-E^d-restricted T-cell hybridomas 45G10, 44B1 and 41C1; type: cell-based, mouse
# [9] = system: TCR of peptide-primed lymph node T-cells; type: cell-based, mouse
# BALB/c mice = conditions: mouse, in vivo
# [10] = system: IgG antibodies of sera of patients suffering from DLE and SS; type: binding, human; remark: listed apart in the source
# [11] = system: anti-virus serum raised in rabbit and serum against the 91–108 sequence expressed at the surface of Salmonella flagellin; type: binding; conditions: FIGS. 14 and 15
compound,measurement,setting,value
"H2N-Gly ← D-Leu ← D-Lys ← D-Lys ← D-Nle ← D-Leu ← D-Arg ← D-Thr ← D-Cys ← D-Ala ← D-Val ← D-His ← D-Ile ← D-Thr ← (R,S)-mLeu-OH [RIb peptide]",sera of patients tested in which anti-peptide 277–291 antibodies are detected,[1]; 30 sera of DLE and SS patients,50%
same,mean optical density,"[1]; arithmetic mean of all 30 sera, peptide 277–291 of Ro52",0.51
same,number of sera which reacted among the 25 sera negative with the L peptide,[1]; threshold 0.30 OD units,10
same,inhibition of bonding of the antibodies to the RIb peptide,[2],up to 79.2%
GILGFVFAL [Ala 65],"fixing to the molecule HLA-A2 (fluorescence), in words",HLA-A2,very active
CC[C@@H](C)[C@@H](NC(=O)CNC(=O)CNC(=O)[C@H](N)CS)C(=O)N[C@H](CCCNC(=N)N)C(=O)NCC(=O)N[C@H](CCC(=O)O)C(=O)N[C@H](CCCNC(=N)N)C(=O)N[C@H](C)C(=O)O [D peptide] (HELM PEPTIDE1{[dC].G.G.[dI].[dR].G.[dE].[dR].[dA]}$$$$V2.0),BIAcore (Ka M^−1) affinity constant at equilibrium,[3],1e+10 M⁻¹
same,Ka (affinity constant at equilibrium),[3],"13,000 ×10^6 M^−1"
same,BIAcore (Ka M^−1) affinity constant at equilibrium,[4],1e+07 M⁻¹
same,Ka (affinity constant at equilibrium),[4],1.2e+07 M⁻¹
same,time to complete loss of immunological activity on digestion with immobilized trypsin,trypsin,> 240 min
same,half-life,in vitro,1.22 h
CH3CO-Ser → Ala → Pro → Ala → Thr → Gly → Gly → Val → Lys → Lys → Pro → His → Arg → Tyr → Arg → Pro → Gly → Thr-NH2 [blocked L peptide 28–45],number of positive sera,[5],20
same,number of positive sera DLE,[5],12
same,percentage of positive sera,[5],29%
GLLGFVFTL [Leu 59],"fixing to the molecule HLA-A2 (fluorescence), in words",HLA-A2,very active
CH3CO-Lys-Leu-Phe-AI a-Val-Trp-Lys-Ile-Thr-Tyr-Lys-Asp-Thr-NH2 [L-peptide 103–115 of poliovirus VP1],"binding to I-A^d transfected fibroblasts, in words",I-A^d class II molecules,Neither the L- nor the retro-inverso peptides bound
same,inhibition (of IL-2 production / binding of cI 12–26),I-E^d class II molecules,up to 77%
same,"proliferation of T-lymphocytes of mice immunized with retro-inverso analogue 103–115, in response to the peptide",[6],a good proliferative response
same,"proliferation of lymph node cells of mice immunized with parent peptide 103–115, stimulated in vitro by the peptide",[6],proliferated
same,"IL-2 production of T-lymphocytes of mice immunized with retro-inverso analogue 103–115, in response to the peptide",[7],IL-2 production were also found
same,"IL-2 production of lymph node cells of mice immunized with parent peptide 103–115, stimulated in vitro by the peptide",[7],produced significant levels of IL-2
same,maximal IL-2 secretion measured using CTL-L cells in the presence of Con A,[7],10 990 cpm
same,IL-2 production of T-cell hybridomas stimulated by the peptide,[8],produced high levels of IL-2
same,IL-2 production by T-cells primed with the retro-inverso analogue 103–115 in response to the peptide,[9],significantly increased
same,cross-reaction in ELISA of antibodies raised against the peptide with the counterpart (L or retro-inverso) peptide,BALB/c mice,"cross-reacted, although less efficiently"
[gLeu^60–mGly^61] M58–66 [GG5],"fixing to the molecule HLA-A2 (fluorescence), in words",HLA-A2,do not bond to the HLA-A2 molecule
CH3CO-(D)Cys-(D)Ser-(D)Lys-(D)Gln-(D)Val-(D)Arg-(D)Leu-(D)Lys-(D)Ser-(D)Tyr-(D)Met-(D)Phe-(D)Tyr-NH2 [retro-inverso peptide 435–446 of γ2a^b],"inhibition, in words",I-A^d class II molecules,almost no inhibition
same,reduction of the IL-2 production,I-A^d class II molecules,about 35%
same,inhibition (of IL-2 production / binding of cI 12–26),I-E^d class II molecules,≤ 48%
same,"IL-2 production of T-lymphocytes of mice immunized with parent peptide 435–446 of γ2a^b, stimulated by the peptide",[7],failed to induce detectable IL-2 secretion
same,maximal IL-2 secretion measured using CTL-L cells in the presence of Con A,[7],26 445 cpm
H → Gly → Leu → Lys → Lys→ Nle → Leu → Arg → Thr → Cys → Ala → Val → His → Ile → Thr → Leu → OH [L peptide 277–291],inhibition of bonding of the antibodies to the RIb peptide,[2],up to 75.8%
H2 N-D-Val ← D-Cys ← D-Glu ← D-Lys ← D-Leu ← D-Cys ← D-Asn ← D-Glu ← D-Lys ← D-Leu ← D-Leu ← D-Lys ← D-Lys ← D-Ala ← D-Arg ← D-Ile ← D-His ← D-Pro ← D-Phe ← D-His ← D-Ile-COCH3 [Blocked RI peptide 304–324 of Ro60],mean optical density,[10],1.15
same,number of sera which reacted,[10],15/20
same,percentage of sera which reacted,[10],75%
Ac-CKAFSNSYPYDVPDYASL-NH2 [double blocked L-peptide *C18L*],recognition by the tested antibodies (ELISA),[11],substantially recognized in the same way
Ac-YFMYSKLRVQKSC-NH2 [L-peptide 435–446 of γ2a^b],reduction of the IL-2 production level,I-A^d class II molecules,> 88%
same,inhibition (of IL-2 production / binding of cI 12–26),I-E^d class II molecules,Up to 84%
same,"proliferation and IL-2 production of lymph node cells of mice immunized with retro-inverso analogue 435–446 of γ2a^b, stimulated by the peptide",[6],proliferation of lymph node cells and IL-2 production were observed
same,"proliferation of T-lymphocytes of mice immunized with parent peptide 435–446 of γ2a^b, stimulated by the peptide",[6],induced a proliferative T-cell response
same,"IL-2 production of T-lymphocytes of mice immunized with parent peptide 435–446 of γ2a^b, stimulated by the peptide",[7],only observed after stimulation by the parent peptide
same,maximal IL-2 secretion measured using CTL-L cells in the presence of Con A,[7],21 565 cpm
same,cross-reaction in ELISA of antibodies raised against the peptide with the counterpart (L or retro-inverso) peptide,BALB/c mice,showed no cross-reaction
H-Ser → Ala → Pro → Ala → Thr → Gly → Gly → Val → Lys → Lys → Pro → His → Arg → Tyr → Arg → Pro → Gly → Thr-OH [natural L peptide 28–45],number of positive sera,[5],12
same,number of positive sera DLE,[5],8
same,percentage of positive sera,[5],17.4%
H-CKAFSNSYPYDVPDYASL-OH [parent L-peptide C18L],recognition by the tested antibodies (ELISA),[11],substantially recognized in the same way
